Source: ChEMBL document CHEMBL1126413, “Cumindysoside A, a novel cytotoxic trisnortriterpene glucoside with a 14, 18-cycloapoeuphane-type skeleton from Dysoxylum cumingianum” (1992)
≈ marks a conversion by molar mass, not a printed value. Calls of active or inactive are those of the source. The rule behind the calls is not given here.

Assays:
A549 = test: Dose required for in vitro cytotoxic activity against A-549 lung carcinoma cells at concentration of 10 ug/ml; NA is no cytotoxicity; assay type: functional, cell-based; conditions: Homo sapiens
[1] = Effective dose required for in vitro cytotoxic activity against TE-671 medulloblastoma tumor cells; assay type: functional; conditions: Homo sapiens, read-out: ED50 (the source's name)
[2] = Effective dose required for in vitro cytotoxic activity against RPMI-7951 melanoma tumor cells; assay type: functional; conditions: Homo sapiens, read-out: ED50 (the source's name)
HCT-8 = test: Dose required for in vitro cytotoxic activity against HCT-8 colon carcinoma cells at concentration of 10 ug/ml; NA is no cytotoxicity; assay type: functional, cell-based; conditions: Homo sapiens

C=C(C=O)[C@H](C)[C@@H]1CCC23CC12CC[C@@H]1[C@@]2(C)CC[C@@H](OC(C)=O)C(C)(C)[C@@H]2C[C@@H](O[C@@H]2O[C@H](COC(C)=O)[C@@H](O)[C@H](O)[C@H]2O)[C@]13C (some centres undefined)
Activity (A549): inactive
EC50 [1]: 2.74 µg/mL (≈ 4.15 µM)
EC50 [2]: 0.34 µg/mL (≈ 0.514 µM)
Activity (HCT-8): inactive
